Values quoted from earlier work as cited in patent US20060074100A1, “Histone deacetylase inhibitors for the treatment of ocular neovascular or edematous disorders and diseases” (priority 2002, published 2006).

Experiments:
[1] = system: corneal neovascularization; settings: in combination with a beta cyclodextrin
[2] = phase I clinical trials
cancer cell [3] = system: cancer cell
cancer cell [4] = settings: in vitro
tumors = settings: animal models

C[C@@H]1C[C@H]2[C@@H]3C[C@H](F)C4=CC(=O)CC[C@]4(C)C3=CC[C@]2(C)[C@@]1(O)C(=O)CO [U-72,745G]
inhibition of corneal neovascularization [1]: inhibit corneal neovascularization

C[C@]12CC[C@@H](O)C[C@H]1CC[C@@H]1[C@@H]2CC[C@@]2(C)[C@H]1CC[C@]2(O)C(=O)CO [tetrahydrocortisol-S]
inhibition of corneal neovascularization [1]: inhibit corneal neovascularization

O=C(CCCCCCC(=O)Nc1ccccc1)NO [SAHA, suberoylanilide hydroxamic acid]
dose-limiting toxicity [2]: almost no dose-limiting toxicity | suppression of white blood cell production [2]: no suppression of white blood cell production | induction of cancer cell differentiation (cancer cell [3]): potent inducer of cancer cell differentiation | cancer cell growth (cancer cell [4]): arrest cancer cell growth in vitro | tumor size (tumors): shrink tumors in animal models

C[C@]12CCC(=O)C=C1CC[C@@H]1[C@@H]2[C@@H](O)C[C@@]2(C)[C@H]1CC[C@]2(O)C(=O)CO [hydrocortisone]
inhibition of corneal neovascularization [1]: inhibit corneal neovascularization
